Data on 2 molecules can be found in ChEMBL document CHEMBL3526108, “Contribution of carboxylesterase in hamster to the intestinal first-pass loss and low bioavailability of ethyl piperate, an effective lipid-lowering drug candidate” (Drug Metab Dispos, 2011).

Data set [1] is described as follows: AUC (0 to t) in hamster at 10 mg/kg, iv. Format: ADME, organism-based. On the set-up: dose 10 mg/kg, route intravenous. The conditions noted are these: cricetinae, plasma.
Data set [2] relates to Hamster. Put plainly: Drug metabolism in hamster intestinal S9 fraction assessed as production of piperinic acid at 400 uM administered as intestinal single-pass perfusion up to 1 hr by LC-MS/MS analysis in presence of BNPP. Format: ADME, Intestine. To be noted: cricetinae, s9, 1 h.
Data set [3] concerns Hamster. As to the kind of experiment: Drug metabolism in hamster assessed as appearance rate of parent compound in portal vein at 400 uM administered as intestinal single-pass perfusion up to 1 hr by LC-MS/MS analysis. In kind it is ADME, organism-based. The conditions noted are these: cricetinae, in vivo, other.
A short description of data set [4]: Drug metabolism in hamster liver microsomes assessed as carboxylesterase-mediated compound hydrolysis at 50 uM after 30 mins in presence of BNPP. Format: ADME. To be noted: cricetinae, 0.5 h.
Data set [5] in a line: Permeability from basolateral to apical side of human Caco2 cells at 5 uM after 1 hr in presence of BNPP. The conditions noted are these: caco-2, 1 h. Format: ADME, cell-based. (In general: Caco-2 monolayers are a common model of the intestinal barrier.)
A short description of data set [6]: Apparent permeability coefficient of parent compound in hamster at 400 uM administered as intestinal single-pass perfusion up to 1 hr by LC-MS/MS analysis in presence of BNPP. Format: ADME, organism-based. The conditions noted are these: cricetinae, with BNPP.
Data set [7] in a line: Permeability from apical to basolateral side of human Caco2 cells at 5 uM after 1 hr in presence of BNPP. Format: ADME, cell-based. To be noted: caco-2, 1 h.
In data set [8] the test system is Hamster. As to the kind of experiment: Drug metabolism in hamster assessed as production of piperinic acid at 400 uM administered as intestinal single-pass perfusion up to 1 hr by LC-MS/MS analysis. Format: ADME, organism-based. To be noted: cricetinae, in vivo, other.
The nature of data set [9]: MRT (0 to t) in hamster at 10 mg/kg, iv. Format: ADME, organism-based. The arrangement: dose 10 mg/kg, route intravenous. The conditions noted are these: cricetinae, in vivo.
Data set [10] relates to Hamster. As to the kind of experiment: Drug metabolism in hamster assessed as appearance rate of parent compound in portal vein at 400 uM administered as intestinal single-pass perfusion up to 1 hr by LC-MS/MS analysis in presence of BNPP. To be noted: cricetinae, in vivo, other. Format: ADME, organism-based.
Data set [11] has as its system Hamster. Put plainly: Drug metabolism in hamster assessed as disappearance rate of parent compound in intestine at 400 uM administered as intestinal single-pass perfusion up to 1 hr by LC-MS/MS analysis in presence of BNPP. Format: ADME, organism-based. The conditions noted are these: cricetinae, in vivo, other.
Data set [12] in a line: Drug metabolism in hamster intestinal S9 fraction assessed as production of piperinic acid by Michaelis-Menten equation analysis. In kind it is ADME, Intestine. To be noted: cricetinae.
Data set [13] can be described thus: MRT (0 to t) in hamster at 30 mg/kg, po. Format: ADME, organism-based. The arrangement: dose 30 mg/kg, route oral. The conditions noted are these: cricetinae, in vivo.
Data set [14] can be described thus: Drug metabolism in hamster liver microsomes assessed as carboxylesterase-mediated compound hydrolysis at 50 uM after 30 mins in presence of BNPP in presence of BNPP. In kind it is ADME. The conditions noted are these: cricetinae, 0.5 h. In general terms: Liver microsomes are a subcellular fraction often used to study metabolism.
Data set [15] can be described thus: Drug metabolism in hamster intestinal microsomes assessed as carboxylesterase-mediated compound hydrolysis at 50 uM after 30 mins. In kind it is ADME, Intestine. The conditions noted are these: cricetinae, 0.5 h.
For data set [16], the system named is Hamster. Put plainly: Absorption clearance in hamster at 400 uM administered as intestinal single-pass perfusion up to 1 hr by LC-MS/MS analysis in presence of BNPP. In kind it is ADME, organism-based. To be noted: cricetinae, in vivo, other.
A short description of data set [17]: AUC (0 to t) in hamster at 30 mg/kg, po. Format: ADME, organism-based. On the set-up: dose 30 mg/kg, route oral. The conditions noted are these: cricetinae, plasma.
The subject of data set [18] is Hamster. As to the kind of experiment: Degradation clearance in hamster at 400 uM administered as intestinal single-pass perfusion up to 1 hr by LC-MS/MS analysis in presence of BNPP. In kind it is ADME, organism-based. The conditions noted are these: cricetinae, in vivo, other.
The nature of data set [19]: Elimination half life in hamster at 10 mg/kg, iv. Format: ADME, organism-based. The arrangement: dose 10 mg/kg, route intravenous. The conditions noted are these: cricetinae, in vivo, read-out: beta t1/2 (converted).
Data set [20] in a line: Stability of the compound at simulated gastrointestinal pH conditions assessed as degradation. In kind it is ADME.
The nature of data set [21]: Drug metabolism in hamster kidney microsomes assessed as carboxylesterase-mediated compound hydrolysis at 50 uM after 30 mins. In kind it is ADME. The conditions noted are these: cricetinae, 0.5 h.
Data set [22] is described as follows: Drug metabolism in hamster kidney microsomes assessed as carboxylesterase-mediated compound hydrolysis at 50 uM after 30 mins in presence of BNPP. In kind it is ADME. The conditions noted are these: cricetinae, 0.5 h.
A short description of data set [23]: Stability of the compound in hamster intestinal washings assessed as compound remaining at 100 uM after 1 hr by LC-MS/MS analysis. Format: ADME. To be noted: cricetinae, read-out: Stability.
A short description of data set [24]: Drug recovery in human Caco2 cells at 5 uM after 1 hr in presence of BNPP. In kind it is ADME, cell-based. The conditions noted are these: Caco-2, with BNPP, read-out: Drug recovery.
Data set [25] in a line: Drug metabolism in hamster liver microsomes assessed as carboxylesterase-mediated compound hydrolysis at 50 uM after 30 mins. In kind it is ADME. The conditions noted are these: cricetinae, 0.5 h.
Data set [26] in a line: Tmax in hamster at 30 mg/kg, po. Format: ADME, organism-based. The arrangement: dose 30 mg/kg, route oral. To be noted: cricetinae, in vivo.
Data set [27] relates to Hamster. As to the kind of experiment: Degradation clearance in hamster at 400 uM administered as intestinal single-pass perfusion up to 1 hr by LC-MS/MS analysis. The conditions noted are these: cricetinae, in vivo, other. Format: ADME, organism-based.
Data set [28] is described as follows: Apparent permeability coefficient of parent compound in hamster at 400 uM administered as intestinal single-pass perfusion up to 1 hr by LC-MS/MS analysis. To be noted: cricetinae. In kind it is ADME, organism-based.
The subject of data set [29] is Hamster. As to the kind of experiment: Volume of distribution in hamster at 10 mg/kg, iv. The arrangement: dose 10 mg/kg, route intravenous. Format: ADME, organism-based. To be noted: cricetinae, in vivo.
Data set [30] can be described thus: Oral bioavailability in hamster at 30 mg/kg. Format: ADME, organism-based. To be noted: cricetinae, in vivo.
Data set [31] is described as follows: Cmax in hamster at 30 mg/kg, po. To be noted: cricetinae, in vivo. Format: ADME, organism-based. The arrangement: dose 30 mg/kg, route oral.
Data set [32] relates to Hamster. As to the kind of experiment: Absorption clearance in hamster at 400 uM administered as intestinal single-pass perfusion up to 1 hr by LC-MS/MS analysis. In kind it is ADME, organism-based. To be noted: cricetinae, in vivo, other.
Data set [33] concerns Hamster. Put plainly: Drug metabolism in hamster assessed as disappearance rate of parent compound in intestine at 400 uM administered as intestinal single-pass perfusion up to 1 hr by LC-MS/MS analysis. To be noted: cricetinae, in vivo, other. In kind it is ADME, organism-based.
Data set [34] deals with Hamster. Put plainly: Drug metabolism in hamster assessed as appearance rate of compound in intestine treated with 400 uM of ethyl piperate administered as intestinal single-pass perfusion up to 1 hr by LC-MS/MS analysis in presence of BNPP. Format: ADME, organism-based. The conditions noted are these: cricetinae, in vivo, other.
For data set [35], the system named is Hamster. As to the kind of experiment: Drug metabolism in hamster assessed as appearance rate of compound in portal vein treated with 400 uM of ethyl piperate administered as intestinal single-pass perfusion up to 1 hr by LC-MS/MS analysis. In kind it is ADME, organism-based. To be noted: cricetinae, in vivo, other.
In data set [36] the test system is Hamster. Put plainly: Drug metabolism in hamster assessed as appearance rate of compound in portal vein treated with 400 uM of ethyl piperate administered as intestinal single-pass perfusion up to 1 hr by LC-MS/MS analysis in presence of BNPP. In kind it is ADME, organism-based. To be noted: cricetinae, in vivo, other.
Data set [37] concerns Hamster. As to the kind of experiment: Drug metabolism in hamster assessed as appearance rate of compound in intestine treated with 400 uM of ethyl piperate administered as intestinal single-pass perfusion up to 1 hr by LC-MS/MS analysis. Format: ADME, organism-based. The conditions noted are these: cricetinae, in vivo, other.
Data set [38] can be described thus: Apparent permeability coefficient of compound in hamster treated with 400 uM of ethyl piperate administered as intestinal single-pass perfusion up to 1 hr by LC-MS/MS analysis in presence of BNPP. The conditions noted are these: cricetinae. In kind it is ADME, organism-based.
Data set [39] is described as follows: Apparent permeability coefficient of compound in hamster treated with 400 uM of ethyl piperate administered as intestinal single-pass perfusion up to 1 hr by LC-MS/MS analysis. Format: ADME, organism-based. The conditions noted are these: cricetinae.

In general, AUC(0-t) refers to exposure summed from dosing to a finite time, without extrapolation to infinity. Read a low AUC(0-t) as low exposure. As a reminder, the Papp is the rate of passage across a membrane or cell layer, normalised by area and donor concentration. One may read the MRT last as the average time that molecules of a dose stay in the body. Usually Km stands for the substrate concentration at which the rate is half of its maximum. Broadly, the Vmax is the rate approached at saturating substrate. The term Tmax denotes the time from dosing to the highest level. What is called bioavailability is dose-corrected exposure relative to a reference, in per cent. A high value points to good availability. The term Cmax denotes the maximum level reached in the sampled fluid or tissue. In the case of `CCOC(=O)/C=C/C=C/c1ccc2c(c1)OCO2`, the AUC(0-t) in data set [1] came to 2450 ng·h/mL; in data set [17], 34.5 ng·h/mL. The Drug metabolism with Hamster [2] was 0.06 nmol/min/mg; in the data set with Hamster [3] it was 10.8 nmol/min; in [4], “metabolite_not_detected”; in the data set with Hamster [8] it was 0.196 nmol/min/mg; with Hamster [10], 9.8 nmol/min; with Hamster [11], 62.7 nmol/min. The Drug metabolism result is reported as “metabolite_not_detected” in [14]; “metabolite_detected” in data set [15]; “metabolite_detected” in [21]; “metabolite_not_detected” in [22]; “metabolite_detected” in data set [25]; 76.5 nmol/min in the data set with Hamster [33]. In addition, the permeability entry in data set [5] and in data set [7] was “impermeable” in each case. Further, the Papp at 1 h, 400 µM is 59.8 ×10⁻⁶ cm/s in [6] and 77 ×10⁻⁶ cm/s in data set [28]. The mean residence time (MRT last) in [9] amounted to 25.8 min; in data set [13], 24 min. In [12], the Michaelis-Menten constant (Km) came to 7.56 µM. Also, the maximal velocity (Vmax) in data set [12] is on record as 0.16 nmol/min/mg. In addition, the entries for the “CL(app)” value in the data set on Hamster [16] and in the data set on Hamster [32] were 55 µL/min and 66.7 µL/min, respectively. Moreover, the results for the CL in the data set with Hamster [18] and in the data set with Hamster [27] were 121.6 µL/min and 339.9 µL/min, respectively. Also, in [19], the half-life was 37.8 min. In addition, the Stability result in data set [20] is given as “Stable”. For the same molecule, the remaining at 1 h, 100 µM in [23] is over 80%. For the same molecule, the recovery at 1 h, 5 µM in data set [24] was over 90%. Further, in data set [26], the Tmax amounted to 9 min. Also, in the data set with Hamster [29], the Vz/F was found to be 3.76 L/kg. The bioavailability in data set [30] stood at 0.47%. In data set [31], this molecule showed a Cmax of 70.4 ng/mL.

For `O=C(O)/C=C/C=C/c1ccc2c(c1)OCO2` [PIPERIC ACID], the Drug metabolism with Hamster [34] came to 2 nmol/min; with Hamster [35], 52.1 nmol/min; in the data set with Hamster [36], 21.7 nmol/min; in the data set on Hamster [37], 2.3 nmol/min. For the same molecule, the Papp at 1 h in data set [38] was 127 ×10⁻⁶ cm/s; in data set [39], 373 ×10⁻⁶ cm/s.
